Experimental findings from patent US10590121B2, “Kinase inhibitors and methods for making and using” (Rigel Pharmaceuticals, Inc., priority 2017, dated 2020) are described below.

Assay [1] relates to LPS induced IL23p19 in THP-1 cells. Put plainly: LPS Induced IL23p19 in THP-1 Cells (with IFNγ Primed) Assay. The following applies: Homo sapiens; THP-1 cells primed with IFNγ 50 ng/mL, 1 μg/mL LPS, 18 hours, 10 pt; read-out: IL23-p19 ELISA, THP1-IFNy, LPS, 10 pt EC50. It is filed as cell-based. A digest of the protocol:
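THP-1 cells were primed with IFNγ (50 ng/mL, ~18 h), pre-incubated 1 h with compound, then stimulated 18 h with 1 μg/mL LPS at 37° C. Supernatant IL-23p19 was measured by chemiluminescent sandwich ELISA, and EC50 was fitted. Toxicity was checked on the remaining cells with Cell Titer Glo.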
On the technique in general: In an ELISA, binding on a coated surface is turned into a signal by an enzyme label.

In assay [2] the test system is LPS induced IL-23 (p19/p40) in DC cells differentiated from human PBMC. Put plainly: IL23-p19 ELISA, dendritic cells (DC differentiated from human PBMC), IFNγ primed, LPS stimulated. It is filed as cell-based. To be noted: human PBMC-derived dendritic cells, 1 μg/ml LPS, 18 hours, 10 pt. A digest of the protocol:
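Human PBMC-derived DCs (GM-CSF 100 ng/ml + IL-4 20 ng/ml, 7 days) were primed 24 h with IFNγ 50 ng/ml, pre-incubated 1 h with compound, then stimulated 18 h with LPS 1 μg/ml at 37° C. Supernatant IL-23 was measured by sandwich chemiluminescent ELISA (anti-p19 capture, anti-p40 detection); cytotoxicity was checked by CellTiter-Glo.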

As usually defined, the EC50 is the concentration at which the effect is half-maximal. Turning to `O=C(Nc1ccc(CN2CCOCC2)cc1N1CCCCC1)c1csc(-c2cn[nH]c2)n1` [I-50, N-(4-(morpholinomethyl)-2-(piperidin-1-yl)phenyl)-2-(1H-pyrazol-4-yl)thiazole-4-carboxamide], the results for the EC50 in assay [1] and in assay [2] were 0.13 µM and 0.0717 µM, respectively.

As for `O=C(Nc1ccc(CC(=O)N2CCOCC2)cc1N1CCCCC1)c1cccc(-c2cn[nH]c2)n1` [I-51, N-(4-(2-morpholino-2-oxoethyl)-2-(piperidin-1-yl)phenyl)-6-(1H-pyrazol-4-yl)picolinamide], the EC50 in assay [1] is 0.0656 µM; in assay [2], 0.154 µM.

`O=C(Nc1ccc(CC(=O)N2CCOCC2)cc1N1CCCCC1)c1ccc(-c2cn[nH]c2)o1` [I-52, N-(4-(2-morpholino-2-oxoethyl)-2-(piperidin-1-yl)phenyl)-5-(1H-pyrazol-4-yl)furan-2-carboxamide]: the EC50 in assay [1] was determined as 1.06 µM; in assay [2], 3.17 µM.

Turning to `O=C(Nc1ccc(CC(=O)N2CCOCC2)cc1N1CCCCC1)c1csc(-c2cn[nH]c2)n1` [I-53, N-(4-(2-morpholino-2-oxoethyl)-2-(piperidin-1-yl)phenyl)-2-(1H-pyrazol-4-yl)thiazole-4-carboxamide], the EC50 stood at 0.167 µM in assay [1] and 0.409 µM in assay [2].

Regarding `O=C(Nc1ccc(CCN2CCOCC2)cc1N1CCCCC1)c1cccc(-c2cn[nH]c2)n1` [I-54, N-(4-(2-morpholinoethyl)-2-(piperidin-1-yl)phenyl)-6-(1H-pyrazol-4-yl)picolinamide], the figures for the EC50 in assay [1] and in assay [2] were 0.093 µM and 0.163 µM, respectively.

Regarding `O=C(Nc1ccc(CCN2CCOCC2)cc1N1CCCCC1)c1csc(-c2cn[nH]c2)n1` [I-56, N-(4-(2-morpholinoethyl)-2-(piperidin-1-yl)phenyl)-2-(1H-pyrazol-4-yl)thiazole-4-carboxamide], the EC50 in assay [1] is 2.37 µM; in assay [2] it was 9.56 µM.

Turning to `O=C(Nc1cc(C(=O)N2CCOCC2)ccc1N1CCCCC1)c1cccc(-c2cn[nH]c2)n1` [I-57, N-(5-(morpholine-4-carbonyl)-2-(piperidin-1-yl)phenyl)-6-(1H-pyrazol-4-yl)picolinamide], the EC50 in assay [1] stood at 0.498 µM; in assay [2], 1.15 µM.

For the molecule `O=C(Nc1cc(C(=O)N2CCOCC2)ccc1N1CCCCC1)c1ccc(-c2cn[nH]c2)o1` [I-58, N-(5-(morpholine-4-carbonyl)-2-(piperidin-1-yl)phenyl)-5-(1H-pyrazol-4-yl)furan-2-carboxamide], the EC50 in assay [1] was 1.5 µM; in assay [2] it was 5.6 µM.

As to `O=C(Nc1cc(C(=O)N2CCOCC2)ccc1N1CCCCC1)c1csc(-c2cn[nH]c2)n1` [I-59, N-(5-(morpholine-4-carbonyl)-2-(piperidin-1-yl)phenyl)-2-(1H-pyrazol-4-yl)thiazole-4-carboxamide], the EC50 in assay [1] is 0.253 µM; in assay [2], 0.294 µM.

As to `O=C(Nc1cc(CN2CCOCC2)ccc1N1CCCCC1)c1ccc(-c2cn[nH]c2)o1` [I-61, N-(5-(morpholinomethyl)-2-(piperidin-1-yl)phenyl)-5-(1H-pyrazol-4-yl)furan-2-carboxamide], the values for the EC50 in assay [1] and in assay [2] were 0.767 µM and 3.84 µM, respectively.

`O=C(Nc1cc(CN2CCOCC2)ccc1N1CCCCC1)c1csc(-c2cn[nH]c2)n1` [I-62, N-(5-(morpholinomethyl)-2-(piperidin-1-yl)phenyl)-2-(1H-pyrazol-4-yl)thiazole-4-carboxamide]: the results for the EC50 in assay [1] and in assay [2] were 0.306 µM and 0.311 µM, respectively.

Regarding `O=C(Nc1cc(CC(=O)N2CCOCC2)ccc1N1CCCCC1)c1cccc(-c2cn[nH]c2)n1` [I-63, N-(5-(2-morpholino-2-oxoethyl)-2-(piperidin-1-yl)phenyl)-6-(1H-pyrazol-4-yl)picolinamide], the EC50 in assay [1] stood at 0.15 µM; in assay [2], 0.16 µM.

For the molecule `O=C(Nc1cc(CC(=O)N2CCOCC2)ccc1N1CCCCC1)c1ccc(-c2cn[nH]c2)o1` [I-64, N-(5-(2-morpholino-2-oxoethyl)-2-(piperidin-1-yl)phenyl)-5-(1H-pyrazol-4-yl)furan-2-carboxamide], the EC50 in assay [1] worked out at 3.68 µM; in assay [2] it was 1.32 µM.

Regarding `O=C(Nc1cc(CC(=O)N2CCOCC2)ccc1N1CCCCC1)c1csc(-c2cn[nH]c2)n1` [I-65, N-(5-(2-morpholino-2-oxoethyl)-2-(piperidin-1-yl)phenyl)-2-(1H-pyrazol-4-yl)thiazole-4-carboxamide], the EC50 in assay [1] was 0.195 µM; in assay [2] it was 0.124 µM.

Take `O=C(Nc1cc(CCN2CCOCC2)ccc1N1CCCCC1)c1cccc(-c2cn[nH]c2)n1` [I-66, N-(5-(2-morpholinoethyl)-2-(piperidin-1-yl)phenyl)-6-(1H-pyrazol-4-yl)picolinamide]: the results for the EC50 in assay [1] and in assay [2] were 0.0924 µM and 0.0418 µM, respectively.

Consider `O=C(Nc1cc(CCN2CCOCC2)ccc1N1CCCCC1)c1ccc(-c2cn[nH]c2)o1` [I-67, N-(5-(2-morpholinoethyl)-2-(piperidin-1-yl)phenyl)-5-(1H-pyrazol-4-yl)furan-2-carboxamide], for which the EC50 in assay [1] amounted to 0.307 µM; in assay [2] it was 0.48 µM.

Turning to `O=C(Nc1cc(CCN2CCOCC2)ccc1N1CCCCC1)c1csc(-c2cn[nH]c2)n1` [I-68, N-(5-(2-morpholinoethyl)-2-(piperidin-1-yl)phenyl)-2-(1H-pyrazol-4-yl)thiazole-4-carboxamide], the results for the EC50 in assay [1] and in assay [2] were 0.0625 µM and 0.0476 µM, respectively.

As for `CN(CCN1CCOCC1)c1ccc(NC(=O)c2cccc(-c3cn[nH]c3)n2)c(N2CCCCC2)c1` [I-69, N-(4-(methyl(2-morpholinoethyl)amino)-2-(piperidin-1-yl)phenyl)-6-(1H-pyrazol-4-yl)picolinamide], the EC50 in assay [1] was found to be 2.63 µM; in assay [2] it was 2.82 µM.

Consider `CN(CCN1CCOCC1)c1ccc(NC(=O)c2ccc(-c3cn[nH]c3)o2)c(N2CCCCC2)c1` [I-70, N-(4-(methyl(2-morpholinoethyl)amino)-2-(piperidin-1-yl)phenyl)-5-(1H-pyrazol-4-yl)furan-2-carboxamide], for which the results for the EC50 in assay [1] and in assay [2] were 1.44 µM and 1.92 µM, respectively.

Regarding `CN(CCN1CCOCC1)c1ccc(NC(=O)c2csc(-c3cn[nH]c3)n2)c(N2CCCCC2)c1` [I-71, N-(4-(methyl(2-morpholinoethyl)amino)-2-(piperidin-1-yl)phenyl)-2-(1H-pyrazol-4-yl)thiazole-4-carboxamide], the EC50 turned out to be 19.3 µM in assay [1] and 2.27 µM in assay [2].

For the molecule `O=C(Nc1ccc(NCCN2CCOCC2)cc1N1CCCCC1)c1cccc(-c2cn[nH]c2)n1` [I-72, N-(4-((2-morpholinoethyl)amino)-2-(piperidin-1-yl)phenyl)-6-(1H-pyrazol-4-yl)picolinamide], the EC50 in assay [1] stood at 0.87 µM; in assay [2], 1.84 µM.

As for `O=C(Nc1ccc(NCCN2CCOCC2)cc1N1CCCCC1)c1ccc(-c2cn[nH]c2)o1` [I-73, N-(4-((2-morpholinoethyl)amino)-2-(piperidin-1-yl)phenyl)-5-(1H-pyrazol-4-yl)furan-2-carboxamide], the figures for the 50% effective concentration (EC50) in assay [1] and in assay [2] were 0.0827 µM and 0.175 µM, respectively.

As to `O=C(Nc1ccc(NCCN2CCOCC2)cc1N1CCCCC1)c1csc(-c2cn[nH]c2)n1` [I-74, N-(4-((2-morpholinoethyl)amino)-2-(piperidin-1-yl)phenyl)-2-(1H-pyrazol-4-yl)thiazole-4-carboxamide], the EC50 in assay [1] turned out to be 0.0514 µM; in assay [2], 0.104 µM.
